Values joined by “and” are separate entries in the source; they are usually repeats but may differ in a detail not shown here. Equal entries are not always repeated.
Tests used:
CCRF-CEM = test: NCI-60 one-dose SRB screen (Leukemia); type: cell-based; settings: Homo sapiens, single dose 10 µM, 48 h, read-out: Growth inhibition percent (GI %)
Protocol: (§1) The National Cancer Institute (NCI) Developmental Therapeutic Program (www.dtp.nci.nih.gov) selected the 20 novel synthesized compounds 4a-e, 5a-e, 6a-c, 9a-e, 10 and 11 to test for their anticancer activity at a single dose of 10 µM using SRB assay. […] Supplementary Data S3; Table S1 presents the detailed screening results of the most promising compounds. The preliminary screening’s detailed results for the remaining compounds are elucidated in the (Supplementary Data S3; Table S2).
(§2) The guidelines of the Drug Evaluation Branch’s protocol at the NCI in Bethesda served as the basis for the in vitro anticancer screening assays. at one dose 10 µM against a panel of 60 cancer cell lines. The human tumor cell lines used belonged to nine panels: leukemia, melanoma, lung, colon, CNS, ovarian, renal, prostate and breast cancers using the sulforhodamine B (SRB) assay in a 48 h drug exposure protocol.

RPMI-8226 = test: NCI-60 one-dose SRB screen (Leukemia); type: cell-based; settings: Homo sapiens, single dose 10 µM, 48 h, read-out: Growth inhibition percent (GI %)
Protocol: as §1, §2

MOLT-4 = test: NCI-60 one-dose SRB screen (Leukemia); type: cell-based; settings: Homo sapiens, single dose 10 µM, 48 h, read-out: Growth inhibition percent (GI %)
Protocol: as §1, §2

SR = test: NCI-60 one-dose SRB screen (Leukemia); type: cell-based; settings: Homo sapiens, single dose 10 µM, 48 h, read-out: Growth inhibition percent (GI %)
Protocol: as §1, §2

K-562 = test: NCI-60 one-dose SRB screen (Leukemia); type: cell-based; settings: Homo sapiens, K562, single dose 10 µM, 48 h, read-out: Growth inhibition percent (GI %)
Protocol: as §1, §2

HL-60(TB) = test: NCI-60 one-dose SRB screen (Leukemia); type: cell-based; settings: Homo sapiens, single dose 10 µM, 48 h, read-out: Growth inhibition percent (GI %)
Protocol: as §1, §2

DU-145 = test: NCI-60 one-dose SRB screen (Prostate Cancer); type: cell-based; settings: Homo sapiens, single dose 10 µM, 48 h, read-out: Growth inhibition percent (GI %)
Protocol: as §1, §2

PC-3 = test: NCI-60 one-dose SRB screen (Prostate Cancer); type: cell-based; settings: Homo sapiens, single dose 10 µM, 48 h, read-out: Growth inhibition percent (GI %)
Protocol: as §1, §2

hCA XII = hCA XII (Homo sapiens, UniProt O43570); test: CA inhibitory activity, spectrophotometric p-NPA assay; type: biochemical; settings: p-NPA substrate, pH 7.5, 25 °C, triplicate; read-out: IC50 (µM) ± SD hCA XII
Protocol: The software used to calculate CA IC50 along with statistical analysis of the results is GraphPad Prism 9.00. Results were estimated by using one-way ANOVA and the Bonferroni’s multiple comparisons posthoc test was performed (P < 0.05) [46]
Carbonic anhydrase inhibitory activity:
The spectrophotometric assay was conducted in HEPES-Tris buffer, NaCl of pH 7.5 (20mM) at 25◦C. Each inhibitory well-consisted of 50 μL of assay buffer solution, 20 μL of hCA enzyme solution (20 ng/μL in Assay Buffer), and 50 μL of test compound in HPLC grade DMSO (maintain 10% of the final concentration). The mixture solution was
Substrate p-nitrophenyl acetate (p-NPA) (0.7mM) was prepared in HPLC grade methanol and the reaction was started by adding 20 μL to a well in a 96-well-plate. The amount of product formed was measured for 30 min continuously at 1 min intervals at 400 nm in a 96-well-plate using xMARK microplate spectrophotometer, Bio-Rad (USA). The activity of the controlled compound was taken as 100%. All experiments were carried out in triplicates of each used concentration, and results are represented as a

HS 578T = test: NCI-60 one-dose SRB screen (Breast Cancer); type: cell-based; settings: Homo sapiens, single dose 10 µM, 48 h, read-out: Growth inhibition percent (GI %)
Protocol: as §1, §2

MDA-MB-468 = test: NCI-60 one-dose SRB screen (Breast Cancer); type: cell-based; settings: Homo sapiens, single dose 10 µM, 48 h, read-out: Growth inhibition percent (GI %)
Protocol: as §1, §2

MCF-7 = test: NCI-60 one-dose SRB screen (Breast Cancer); type: cell-based; settings: Homo sapiens, MCF7, single dose 10 µM, 48 h, read-out: Growth inhibition percent (GI %)
Protocol: as §1, §2

BT-549 = test: NCI-60 one-dose SRB screen (Breast Cancer); type: cell-based; settings: Homo sapiens, single dose 10 µM, 48 h, read-out: Growth inhibition percent (GI %)
Protocol: as §1, §2

MDA-MB-231/ATCC = test: NCI-60 one-dose SRB screen (Breast Cancer); type: cell-based; settings: Homo sapiens, single dose 10 µM, 48 h, read-out: Growth inhibition percent (GI %)
Protocol: as §1, §2

T-47D = test: NCI-60 one-dose SRB screen (Breast Cancer); type: cell-based; settings: Homo sapiens, T47D, single dose 10 µM, 48 h, read-out: Growth inhibition percent (GI %)
Protocol: as §1, §2

EKVX = test: NCI-60 one-dose SRB screen (Non-Small Cell Lung Cancer); type: cell-based; settings: Homo sapiens, single dose 10 µM, 48 h, read-out: Growth inhibition percent (GI %)
Protocol: as §1, §2

HOP-62 = test: as above; type: cell-based; settings: Homo sapiens, single dose 10 µM, 48 h, read-out: Growth inhibition percent (GI %)
Protocol: as §1, §2

NCI-H322M = test: as above; type: cell-based; settings: Homo sapiens, single dose 10 µM, 48 h, read-out: Growth inhibition percent (GI %)
Protocol: as §1, §2

HOP-92 = test: as above; type: cell-based; settings: Homo sapiens, single dose 10 µM, 48 h, read-out: Growth inhibition percent (GI %)
Protocol: as §1, §2

NCI-H226 = test: as above; type: cell-based; settings: Homo sapiens, single dose 10 µM, 48 h, read-out: Growth inhibition percent (GI %)
Protocol: as §1, §2

NCI-H460 = test: as above; type: cell-based; settings: Homo sapiens, single dose 10 µM, 48 h, read-out: Growth inhibition percent (GI %)
Protocol: as §1, §2

NCI-H23 = test: as above; type: cell-based; settings: Homo sapiens, single dose 10 µM, 48 h, read-out: Growth inhibition percent (GI %)
Protocol: as §1, §2

A549/ATCC = test: as above; type: cell-based; settings: Homo sapiens, single dose 10 µM, 48 h, read-out: Growth inhibition percent (GI %)
Protocol: as §1, §2

NCI-H522 = test: as above; type: cell-based; settings: Homo sapiens, single dose 10 µM, 48 h, read-out: Growth inhibition percent (GI %)
Protocol: as §1, §2

ACHN = test: NCI-60 one-dose SRB screen (Renal Cancer); type: cell-based; settings: Homo sapiens, single dose 10 µM, 48 h, read-out: Growth inhibition percent (GI %)
Protocol: as §1, §2

RXF 393 = test: NCI-60 one-dose SRB screen (Renal Cancer); type: cell-based; settings: Homo sapiens, single dose 10 µM, 48 h, read-out: Growth inhibition percent (GI %)
Protocol: as §1, §2

A498 = test: NCI-60 one-dose SRB screen (Renal Cancer); type: cell-based; settings: Homo sapiens, single dose 10 µM, 48 h, read-out: Growth inhibition percent (GI %)
Protocol: as §1, §2

TK-10 = test: NCI-60 one-dose SRB screen (Renal Cancer); type: cell-based; settings: Homo sapiens, single dose 10 µM, 48 h, read-out: Growth inhibition percent (GI %)
Protocol: as §1, §2

UO-31 = test: NCI-60 one-dose SRB screen (Renal Cancer); type: cell-based; settings: Homo sapiens, single dose 10 µM, 48 h, read-out: Growth inhibition percent (GI %)
Protocol: as §1, §2

786-0 = test: NCI-60 one-dose SRB screen (Renal Cancer); type: cell-based; settings: Homo sapiens, single dose 10 µM, 48 h, read-out: Growth inhibition percent (GI %)
Protocol: as §1, §2

hCA XII, sequence (O43570 25-354): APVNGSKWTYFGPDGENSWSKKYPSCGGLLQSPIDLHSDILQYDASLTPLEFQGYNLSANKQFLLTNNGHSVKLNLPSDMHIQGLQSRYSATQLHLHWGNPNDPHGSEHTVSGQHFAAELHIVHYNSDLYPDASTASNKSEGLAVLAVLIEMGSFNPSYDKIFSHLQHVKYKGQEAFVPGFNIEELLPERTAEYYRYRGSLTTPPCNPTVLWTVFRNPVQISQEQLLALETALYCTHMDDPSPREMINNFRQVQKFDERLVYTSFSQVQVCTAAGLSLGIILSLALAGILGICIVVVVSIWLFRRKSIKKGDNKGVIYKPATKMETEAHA

## CCOC(=O)c1ccc(NC(=O)COC(=O)c2cn(-c3ccc(S(N)(=O)=O)cc3)nc2-c2ccccc2)cc1 [Compound 5a, 2-[(4-(Ethoxycarbonyl)phenyl)amino]-2-oxoethyl 3-phenyl-1-(4-sulfamoylphenyl)-1H-pyrazole-4-carboxylate]
CCRF-CEM
  inhibition at 10 µM: 82%
RPMI-8226
  inhibition at 10 µM: 86.8%
MOLT-4
  inhibition at 10 µM: 89%
SR
  inhibition at 10 µM: 82.1%
K-562
  inhibition at 10 µM: 78.7%
HL-60(TB)
  inhibition at 10 µM: 92.1%
DU-145
  inhibition at 10 µM: 29.1%
PC-3
  inhibition at 10 µM: 68.1%
hCA XII
  IC50: 0.39 µM and 0.395 µM
HS 578T
  inhibition at 10 µM: 44.6%
MDA-MB-468
  inhibition at 10 µM: 62%
MCF-7
  inhibition at 10 µM: 81.6%
BT-549
  inhibition at 10 µM: 64.1%
MDA-MB-231/ATCC
  inhibition at 10 µM: 35.8%
T-47D
  inhibition at 10 µM: 69.7%
EKVX
  inhibition at 10 µM: 49%
HOP-62
  inhibition at 10 µM: 19.3%
NCI-H322M
  inhibition at 10 µM: 32.4%
HOP-92
  inhibition at 10 µM: 38.2%
NCI-H226
  inhibition at 10 µM: 54.7%
NCI-H460
  inhibition at 10 µM: 63.5%
NCI-H23
  inhibition at 10 µM: 51.7%
A549/ATCC
  inhibition at 10 µM: 60.3%
NCI-H522
  inhibition at 10 µM: 76.8%
ACHN
  inhibition at 10 µM: 76.1%
RXF 393
  inhibition at 10 µM: 66.5%
A498
  inhibition at 10 µM: 25.3%
TK-10
  inhibition at 10 µM: 40.1%
UO-31
  inhibition at 10 µM: 62.7%
786-0
  inhibition at 10 µM: 66.9%

Reference: paper PMC12454493, “Insight on novel sulfamoylphenyl pyrazole derivatives as anticancer carbonic anhydrase inhibitors” (Molecular Diversity, 2024)
